Experimental data: publication PMC8537277 (Pharmaceuticals, 2021)
pIC50: −log10 of the molar value. Where two headings read alike, the source gives them in different places. Where a SMILES comes first, the peptide text is derived from it.

What was measured:
[1] = system: A/Parma/24/09 H1N1 oseltamivir-resistant virus; conditions: reference peptides; ref Scala et al. (2017) [14]; read-out: HI Titer (IC50) A/Parma/24/09 H1N1; cited from earlier work
[2] = system: A/Parma/24/09 H1N1 oseltamivir-resistant virus
[3] = A/Parma/24/09 oseltamivir-resistant virus, 1 h

SMILES | pIC50 [1] | pIC50 [2, 3] | also measured
CC(=O)N[C@@H](CO)C(=O)N[C@@H](CCCCN)C(=O)N[C@@H](Cc1c[nH]cn1)C(=O)N[C@@H](CO)C(N)=O [Peptide 1, Ac-SKHS-NH2] (Ac-SKHS-NH2) | 8.82 |  | 
CC(=O)N[C@@H](CO)C(=O)N[C@@H](CC(C)C)C(=O)N[C@@H](CC(=O)O)C(=O)N[C@@H](CS)C(N)=O [Peptide 2, Ac-SLDC-NH2] (Ac-SLDC-NH2) | 8.22 |  | 
CC(=O)N[C@@H](CO)C(=O)N[C@@H](C)C(=O)N[C@@H](Cc1c[nH]cn1)C(=O)N[C@@H](CO)C(N)=O [Peptide 4, Ac-SAHS-NH2] (Ac-SAHS-NH2) |  |  | pIC50 ([2]; read-out: HI Titer (IC50) A/Parma/24/09 H1N1, 50% inhibition of virus-induced hemagglutination, N.D. = not detectable at maximum tested concentration 12.5 × 10^3 nM): 9.30
CC(=O)N[C@@H](CO)C(=O)N[C@@H](CCCCN)C(=O)N[C@@H](C)C(=O)N[C@@H](CO)C(N)=O [Peptide 5] (Ac-SKAS-NH2) |  | 11.54 | 
CC(=O)N[C@@H](CO)C(=O)N[C@@H](C)C(=O)N[C@@H](CC(=O)O)C(=O)N[C@@H](CS)C(N)=O [Peptide 8] (Ac-SADC-NH2) |  | 14.66 | 
CC(=O)N[C@@H](CO)C(=O)N[C@@H](CC(C)C)C(=O)N[C@@H](CC(=O)O)C(=O)N[C@@H](C)C(N)=O [Peptide 10] (Ac-SLDA-NH2) |  | 8.21 | 
